For 21 compounds, EC50 results are on record in patent publication US9957254B2, “Cyclohexen-1-yl-pyridin-2-yl-1h-pyrazole-4-carboxylic acid derivatives and the use thereof as soluble guanylate cyclase activators” (Novartis AG, priority 2014, dated 2018).

In general, EC50 refers to the concentration giving half of the maximal effect.

T1 sequence (Q02108 whole entry partner): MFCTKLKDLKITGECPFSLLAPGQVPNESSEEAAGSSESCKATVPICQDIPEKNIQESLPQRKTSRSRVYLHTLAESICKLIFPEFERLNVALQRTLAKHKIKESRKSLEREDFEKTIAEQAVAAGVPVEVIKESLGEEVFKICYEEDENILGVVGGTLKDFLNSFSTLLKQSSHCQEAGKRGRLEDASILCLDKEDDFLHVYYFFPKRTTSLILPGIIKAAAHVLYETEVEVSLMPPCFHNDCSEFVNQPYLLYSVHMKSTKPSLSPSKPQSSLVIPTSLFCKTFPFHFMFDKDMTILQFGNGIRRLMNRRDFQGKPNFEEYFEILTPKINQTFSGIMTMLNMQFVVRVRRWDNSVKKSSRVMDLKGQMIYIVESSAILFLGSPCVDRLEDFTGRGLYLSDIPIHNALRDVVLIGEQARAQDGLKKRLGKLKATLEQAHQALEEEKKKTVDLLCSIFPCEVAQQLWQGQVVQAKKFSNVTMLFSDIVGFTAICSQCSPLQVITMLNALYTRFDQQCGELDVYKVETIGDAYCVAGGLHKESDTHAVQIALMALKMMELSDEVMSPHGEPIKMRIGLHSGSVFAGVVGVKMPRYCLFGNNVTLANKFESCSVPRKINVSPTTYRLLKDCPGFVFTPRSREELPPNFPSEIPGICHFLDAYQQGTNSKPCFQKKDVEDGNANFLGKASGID
T1 sequence (Q02153 whole entry): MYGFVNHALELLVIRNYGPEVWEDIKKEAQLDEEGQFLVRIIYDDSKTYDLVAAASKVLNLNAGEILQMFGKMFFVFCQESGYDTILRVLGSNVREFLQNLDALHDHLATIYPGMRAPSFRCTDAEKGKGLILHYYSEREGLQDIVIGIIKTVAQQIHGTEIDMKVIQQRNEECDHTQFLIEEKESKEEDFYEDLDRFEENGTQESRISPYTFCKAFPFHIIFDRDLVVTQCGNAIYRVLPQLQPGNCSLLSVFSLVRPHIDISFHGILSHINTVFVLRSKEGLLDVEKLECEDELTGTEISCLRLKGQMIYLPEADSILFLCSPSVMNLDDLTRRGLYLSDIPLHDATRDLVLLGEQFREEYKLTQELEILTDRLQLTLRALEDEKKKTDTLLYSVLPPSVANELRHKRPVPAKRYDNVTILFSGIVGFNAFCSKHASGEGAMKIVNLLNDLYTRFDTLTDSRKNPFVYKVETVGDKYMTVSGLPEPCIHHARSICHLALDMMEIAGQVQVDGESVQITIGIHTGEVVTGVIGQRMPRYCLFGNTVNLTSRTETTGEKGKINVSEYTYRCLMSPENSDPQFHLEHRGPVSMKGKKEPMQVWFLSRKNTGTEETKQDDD

This experiment has as its target T1, soluble guanylate cyclase (Homo sapiens, UniProt Q02153).
T1 construct: expressed in transfected cells
The experiment is described as follows: CHO cellular assay (cGMP production, Cisbio cGMP HTRF). Type of experiment: cell-based. The note with it: CHO K1 cells overexpressing human GUCYA3/GUCYB3 (clone 8E10), 1 mM IBMX, 20 uM ODQ, 1 h room temperature, listed 0.5 nM means actual EC50 ≤0.5 nM (quantification limit). An excerpt:
Chinese hamster ovary (CHO) cells overexpressing soluble guanylate cyclase were generated to test the effect of sGC activators in a cellular context. Human cDNAs for GUCYA3 (RefSeq: NM_000856.3) and GUCYB3 (RefSeq: NM_000857.1) were amplified by PCR from a HUVEC (Human Umbilical Vein Endothelial Cells) cDNA library and cloned into mammalian expression vectors. CHO K1 cells (ATCC CCL-61) were transfected using Lipofectamine 2000 following manufacturer's instructions and stably expressing clones were identified by antibiotic selection. CHO GUCY clone 8E10 was used for subsequent experiments.
Cells were seeded at a density of 3000 cells/well in white 384-well proxyplates (Perkin Elmer) and incubated overnight, then the medium was removed and cells were washed with assay buffer (HBSS, 0.1% BSA, 1 mM IBMX, 20 uM ODQ). sGC activators were serially diluted in DMSO, then diluted in assay buffer prior to adding to cells (10 ul/well, final DMSO concentration 0.5%). Cells were incubated with compounds for 1 h room temperature, then assayed for cGMP production using Cisbio cGMP HTRF kit (62GM2PEC) according to manufacturer's instructions.
The EC50s are calculated based on the amount of cGMP interpolated from the standard curve, using a 4-parameter sigmoidal dose-response.
Compounds of invention are active on sGC activation. Data on Table 1 collected using the assay of Biological Example 1. The minimum EC50 quantification limit of the assay is 0.5 nM, therefore any compound listed as having an EC50 value of 0.5 nM has a actual EC50 of ≤0.5 nM.
(Time-resolved FRET reads energy transfer from a long-lived donor to a nearby acceptor.)
With `Cc1cc(C2CCN(C(=O)OC(C)(C)C)CC2)ccc1OCC1=C(c2cccc(-n3ncc(C(=O)O)c3C(F)(F)F)n2)CCCC1` [Example 2-13, 1-(6-(2-((4-(1-(tert-butoxycarbonyl)piperidin-4-yl)-2-methylphenoxy)methyl)cyclohex-1-en-1-yl)pyridin-2-yl)-5-(trifluoromethyl)-1H-pyrazole-4-carboxylic acid], a half-maximal effect (EC50) was put at 110 nM. This counts as sub-micromolar.

Compound `CCc1cc(OCC2=C(c3cccc(-n4ncc(C(=O)O)c4CC)n3)CCCC2C)ccc1C1CCN(C(=O)C2CC2)CC1` (single isomer, unassigned; (-)) [Example 17b, (−)-1-(6-(2-((4-(1-(Cyclopropanecarbonyl)piperidin-4-yl)-3-ethylphenoxy)methyl)-3-methylcyclohex-1-en-1-yl)pyridin-2-yl)-5-ethyl-1H-pyrazole-4-carboxylic acid] returned an EC50 of 1.4 nM.

Take `CCc1cc(OCC2=C(c3cccc(-n4ncc(C(=O)O)c4C)n3)CCCC2C)ccc1C1CCN(C(=O)C2CC2)CC1` (single isomer, unassigned; (-)) [Example 16b, (−)-1-(6-(2-((4-(1-(Cyclopropanecarbonyl)piperidin-4-yl)-3-ethylphenoxy)methyl)-3-methylcyclohex-1-en-1-yl)pyridin-2-yl)-5-methyl-1H-pyrazole-4-carboxylic acid]: the EC50 amounted to 3 nM.

`Cc1cc(C2CCN(C(=O)N(C)C)CC2)ccc1OCC1=C(c2cccc(-n3ncc(C(=O)O)c3C(F)(F)F)n2)CCCC1` [Example 2-4, 1-(6-(2-((4-(1-(dimethylcarbamoyl)piperidin-4-yl)-2-methylphenoxy)methyl)cyclohex-1-en-1-yl)pyridin-2-yl)-5-(trifluoromethyl)-1H-pyrazole-4-carboxylic acid] had an EC50 of 1 nM.

Regarding `CCc1cc(OCC2=C(c3cccc(-n4ncc(C(=O)O)c4CC)n3)CCCC2C)ccc1C1CCN(C(=O)[C@H](C)O)CC1` (single isomer, unassigned; diastereomer-1) [Example 18a], the EC50 is at most 0.5 nM.

The compound `Cc1cc(C2CCN(S(C)(=O)=O)CC2)ccc1OCC1=C(c2cccc(-n3ncc(C(=O)O)c3C(F)(F)F)n2)CCCC1` [Example 2-3, 1-(6-(2-((2-methyl-4-(1-(methylsulfonyl)piperidin-4-yl)phenoxy)methyl)cyclohex-1-en-1-yl)pyridin-2-yl)-5-(trifluoromethyl)-1H-pyrazole-4-carboxylic acid] returned an EC50 of 1 nM.

`CCc1cc(NCC2=C(c3cccc(-n4ncc(C(=O)O)c4C(F)(F)F)n3)CCCC2)ccc1C1CCN(C(=O)C2CC2)CC1` [Example 26, 1-(6-(2-(((4-(1-(Cyclopropanecarbonyl)piperidin-4-yl)-3-ethylphenyl)amino)methyl)cyclohex-1-en-1-yl)pyridin-2-yl)-5-(trifluoromethyl)-1H-pyrazole-4-carboxylic acid] gave an EC50 of at most 0.5 nM.

`Cc1cc(C2CCN(CC(F)(F)F)CC2)ccc1OCC1=C(c2cccc(-n3ncc(C(=O)O)c3C(F)(F)F)n2)CCCC1` [Example 6-1, 1-(6-(2-((2-methyl-4-(1-(2,2,2-trifluoroethyl)piperidin-4-yl)phenoxy)methyl)cyclohex-1-en-1-yl)pyridin-2-yl)-5-(trifluoromethyl)-1H-pyrazole-4-carboxylic acid] had an EC50 of 2.8 nM. That is a single-digit nanomolar value.

With `CCc1cc(OCC2=C(c3cccc(-n4ncc(C(=O)O)c4C(F)F)n3)CCCC2C)ccc1C1CCN(C(=O)C2CC2)CC1` (single isomer, unassigned; (-)) [Example 20b (−), (−)-1-(6-(2-((4-(1-(cyclopropanecarbonyl)piperidin-4-yl)-3-ethylphenoxy)methyl)-3-methylcyclohex-1-en-1-yl)pyridin-2-yl)-5-(difluoromethyl)-1H-pyrazole-4-carboxylic acid], it took 2 nM to reach a half-maximal effect (EC50).

Compound `Cc1cc(C2CCN(C(=O)[C@H](C)O)CC2)ccc1OCC1=C(c2cccc(-n3ncc(C(=O)O)c3C(F)(F)F)n2)CCCC1` [Example 3, (S)-1-(6-(2-((4-(1-(2-hydroxypropanoyl)piperidin-4-yl)-2-methylphenoxy)methyl)cyclohex-1-en-1-yl)pyridin-2-yl)-5-(trifluoromethyl)-1H-pyrazole-4-carboxylic acid] gave an EC50 of at most 0.5 nM.

Turning to `O=C(O)c1cnn(-c2cccc(C3=C(CNc4ccc(C5CCN(C(=O)C6CC6)CC5)cc4)CCCC3)n2)c1C(F)(F)F` [Example 27-2, 1-(6-(2-(((4-(1-(Cyclopropanecarbonyl)piperidin-4-yl)phenyl)amino)methyl)cyclohex-1-en-1-yl)pyridin-2-yl)-5-(trifluoromethyl)-1H-pyrazole-4-carboxylic acid], the EC50 is 5 nM. This lies in the single-digit nanomolar range.

As to `Cc1cc(C2CCN(C(=O)CO)CC2)ccc1OCC1=C(c2cccc(-n3ncc(C(=O)O)c3C(F)(F)F)n2)CCCC1` [Example 2-5, 1-(6-(2-((4-(1-(2-hydroxyacetyl)piperidin-4-yl)-2-methylphenoxy)methyl)cyclohex-1-en-1-yl)pyridin-2-yl)-5-(trifluoromethyl)-1H-pyrazole-4-carboxylic acid], the EC50 was found to be 2.4 nM.

`Cc1cc(C2CCN(S(=O)(=O)C3CC3)CC2)ccc1OCC1=C(c2cccc(-n3ncc(C(=O)O)c3C(F)(F)F)n2)CCCC1` [Example 2-9, 1-(6-(2-((4-(1-(cyclopropylsulfonyl)piperidin-4-yl)-2-methylphenoxy)methyl)cyclohex-1-en-1-yl)pyridin-2-yl)-5-(trifluoromethyl)-1H-pyrazole-4-carboxylic acid] returned an EC50 of 1 nM.

`Cc1cc(C2CCN(C(=O)C3CCC3)CC2)ccc1OCC1=C(c2cccc(-n3ncc(C(=O)O)c3C(F)(F)F)n2)CCCC1` [Example 2-11, 1-(6-(2-((4-(1-(cyclobutanecarbonyl)piperidin-4-yl)-2-methylphenoxy)methyl)cyclohex-1-en-1-yl)pyridin-2-yl)-5-(trifluoromethyl)-1H-pyrazole-4-carboxylic acid] came in with an EC50 of 1 nM.

`Cc1cc(C2CCN(S(C)(=O)=O)CC2)ccc1OCC1=C(c2cccc(-n3ncc(C(=O)O)c3C(F)(F)F)n2)CCC1` [Example 24-4, 1-(6-(2-((2-Methyl-4-(1-(methylsulfonyl)piperidin-4-yl)phenoxy)methyl)cyclopent-1-en-1-yl)pyridin-2-yl)-5-(trifluoromethyl)-1H-pyrazole-4-carboxylic acid] yielded an EC50 of 2.4 nM.

`Cc1cc(C2CCN(C(=O)C3CC3)CC2)ccc1OCC1=C(c2cccc(-n3ncc(C(=O)O)c3C(F)(F)F)n2)CCC1` [Example 21, 1-(6-(2-((4-(1-(Cyclopropanecarbonyl)piperidin-4-yl)-2-methylphenoxy)methyl)cyclopent-1-en-1-yl)pyridin-2-yl)-5-(trifluoromethyl)-1H-pyrazole-4-carboxylic acid] registered an EC50 of 2.4 nM.

For `Cc1cc(C2CCN(C(=O)C(C)C)CC2)ccc1OCC1=C(c2cccc(-n3ncc(C(=O)O)c3C(F)(F)F)n2)CCCC1` [Example 2-10, 1-(6-(2-((4-(1-isobutyrylpiperidin-4-yl)-2-methylphenoxy)methyl)cyclohex-1-en-1-yl)pyridin-2-yl)-5-(trifluoromethyl)-1H-pyrazole-4-carboxylic acid], the EC50 was at most 0.5 nM.

Compound `COC(=O)N1CCC(c2ccc(OCC3=C(c4cccc(-n5ncc(C(=O)O)c5C(F)(F)F)n4)CCCC3)c(C)c2)CC1` [Example 2-2, 1-(6-(2-((4-(1-(methoxycarbonyl)piperidin-4-yl)-2-methylphenoxy)methyl)cyclohex-1-en-1-yl)pyridin-2-yl)-5-(trifluoromethyl)-1H-pyrazole-4-carboxylic acid] registered an EC50 of 1 nM.

`CCc1cc(OCC2=C(c3cccc(-n4ncc(C(=O)O)c4C(F)(F)F)n3)CCCC2(C)C)ccc1C1CCN(C(=O)C2CC2)CC1` [Example 14, 1-(6-(2-((4-(1-(Cyclopropanecarbonyl)piperidin-4-yl)-3-ethylphenoxy)methyl)-3,3-dimethylcyclohex-1-en-1-yl)pyridin-2-yl)-5-(trifluoromethyl)-1H-pyrazole-4-carboxylic acid] displayed an EC50 of 1 nM.

`CCc1cc(OCC2=C(c3cccc(-n4ncc(C(=O)O)c4C(F)F)n3)CCCC2C)ccc1C1CCN(C(=O)C2CC2)CC1` (single isomer, unassigned; (+)) [Example 20(b) (+), (+)-1-(6-(2-((4-(1-(cyclopropanecarbonyl)piperidin-4-yl)-3-ethylphenoxy)methyl)-3-methylcyclohex-1-en-1-yl)pyridin-2-yl)-5-(difluoromethyl)-1H-pyrazole-4-carboxylic acid] yielded an EC50 of at most 0.5 nM.

In the case of `CCc1cc(C2CCN(C(=O)C3CC3)CC2)ccc1OCC1=C(c2cccc(-n3ncc(C(=O)O)c3C(F)(F)F)n2)CCCC1` [Example 8-1, 1-(6-(2-((4-(1-(cyclopropanecarbonyl)piperidin-4-yl)-2-ethylphenoxy)methyl)cyclohex-1-en-1-yl)pyridin-2-yl)-5-(trifluoromethyl)-1H-pyrazole-4-carboxylic acid], the midpoint of the response, the EC50, lay at 5.5 nM.
